From US8202870B2, “Substituted oxindole derivatives, medicaments containing the latter and use thereof” (Abbott GmbH & Co. KG, priority 2005, dated 2012)
Where two headings read alike, the source gives them in different places.

Target: T1, human V1b receptors (Homo sapiens, UniProt P47901)
T1 construct: expressed in transfected cells; preparation V1b-3H2
T1 sequence (P47901 1-424): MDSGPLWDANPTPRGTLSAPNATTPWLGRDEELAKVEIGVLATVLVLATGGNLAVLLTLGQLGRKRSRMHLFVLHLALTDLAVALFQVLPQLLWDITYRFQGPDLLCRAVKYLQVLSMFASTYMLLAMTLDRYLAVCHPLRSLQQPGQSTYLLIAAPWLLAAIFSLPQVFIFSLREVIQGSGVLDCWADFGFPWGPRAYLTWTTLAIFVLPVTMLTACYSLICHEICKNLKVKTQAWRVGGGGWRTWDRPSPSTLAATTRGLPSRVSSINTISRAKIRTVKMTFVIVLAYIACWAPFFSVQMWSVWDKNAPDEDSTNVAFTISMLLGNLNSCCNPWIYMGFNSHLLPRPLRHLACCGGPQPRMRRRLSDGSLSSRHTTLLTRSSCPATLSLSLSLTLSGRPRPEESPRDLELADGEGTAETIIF
Assay: Vasopressin V1b receptor binding assay
Procedure: Vasopressin V1b Receptor Binding Assay:
This DMSO predilution series was diluted 1:10 with assay buffer. The substance concentration was further diluted 1:10 in the assay mixture.
The nonspecific binding was determined with 10^−6 M AVP. Determinations in triplicate were carried out.
The affinities for the human vasopressin V1b receptor were measured, and affinity constants determined, in the above assay for the inventive examples.
The affinities of the compounds (I) of the invention for the human vasopressin V1b receptor were measured in accordance with the above assays, and the affinity constants. (Ki) were determined. Table 1 below details the V1b receptor affinity of selected compounds (++ means <50 nM and + means 50-500 nM).

[1] = membranes from CHO-K1 cells with human V1b receptors, 3H-AVP displacement, read-out: V1b Ki
[2] = read-out: Ki values, affinity for the vasopressin V1b receptor

Row | SMILES | Ki [1] | Ki [2]
1 | CCOc1ccccc1C1(OC(=O)N2CCN(c3nccs3)CC2)C(=O)N(S(=O)(=O)c2cccc3cccnc23)c2ccc(C#N)cc21 (stereo not drawn) [Example 1, 5-Cyano-3-(2-ethoxyphenyl)-2-oxo-1-(quinoline-8-sulfonyl)-2,3-dihydro-1H-indol-3-yl 4-(thiazol-2-yl)piperazine-1-carboxylate] | < 0.05 µM | < 0.1 µM
2 | CCOc1ccccc1C1(NC(=O)N2CCN(c3ccncc3)CC2)C(=O)N(S(=O)(=O)c2cccc3cccnc23)c2ccc(C#N)cc21 (stereo not drawn) [Example 2, 4-(Pyridin-4-yl)piperazin-1-[5-cyano-3-(2-ethoxyphenyl)-2-oxo-1-(quinoline-8-sulfonyl)-2,3-dihydro-1H-indol-3-yl]carboxamide] | < 0.05 µM | < 0.1 µM
3 | CCOc1ccccc1C1(NC(=O)N2CCN(c3ccncc3)CC2)C(=O)N(S(=O)(=O)c2ccsc2)c2ccc(C#N)cc21 (stereo not drawn) [Example 3, 4-(Pyridin-4-yl)piperazin-1-[5-cyano-3-(2-ethoxyphenyl)-2-oxo-1-(thien-3-yl-sulfonyl)-2,3-dihydro-1H-indol-3-yl]carboxamide] | < 0.05 µM | < 0.1 µM
4 | CCOc1ccccc1C1(OC(=O)N2CCN(c3ccncc3)CC2)C(=O)N(S(=O)(=O)c2ccsc2)c2ccc(C#N)cc21 (stereo not drawn) [Example 4, 5-Cyano-3-(2-ethoxyphenyl)-2-oxo-1-(thien-3-ylsulfonyl)-2,3-dihydro-1H-indol-3-yl 4-(pyridin-4-yl)piperazine-1-carboxylate] | < 0.05 µM | < 0.1 µM
5 | CCOc1ccccc1C1(OC(=O)N2CCN(c3ccccn3)CC2)C(=O)N(S(=O)(=O)c2cccc3cccnc23)c2ccc(C#N)cc21 (stereo not drawn) [Example 5, 5-Cyano-3-(2-ethoxyphenyl)-2-oxo-1-(quinoline-8-sulfonyl)-2,3-dihydro-1H-indol-3-yl 4-(pyridin-2-yl)piperazine-1-carboxylate] | < 0.05 µM | < 0.1 µM
6 | CCOc1ccccc1C1(OC(=O)N2CCN(c3ncccn3)CC2)C(=O)N(S(=O)(=O)c2cccc3cccnc23)c2ccc(C#N)cc21 (stereo not drawn) [Example 6, 5-Cyano-3-(2-ethoxyphenyl)-2-oxo-1-(quinoline-8-sulfonyl)-2,3-dihydro-1H-indol-3-yl 4-(pyrimidin-2-yl)piperazine-1-carboxylate] | < 0.05 µM | < 0.1 µM
7 | CCOc1ccccc1C1(OC(=O)N2CCN(c3cnccn3)CC2)C(=O)N(S(=O)(=O)c2cccc3cccnc23)c2ccc(C#N)cc21 (stereo not drawn) [Example 7, 5-Cyano-3-(2-ethoxyphenyl)-2-oxo-1-(quinoline-8-sulfonyl)-2,3-dihydro-1H-indol-3-yl 4-(pyrazin-2-yl)piperazine-1-carboxylate] | 0.05 to 0.5 µM | < 0.1 µM
8 | CCOc1ccccc1C1(OC(=O)N2CCN(c3nccs3)CC2)C(=O)N(S(=O)(=O)c2ccsc2)c2ccc(C#N)cc21 (stereo not drawn) [Example 8, 5-Cyano-3-(2-ethoxyphenyl)-2-oxo-1-(thien-3-ylsulfonyl)-2,3-dihydro-1H-indol-3-yl 4-(thiazol-2-yl)piperazine-1-carboxylate] | 0.05 to 0.5 µM | 
9 | CCOc1ccccc1C1(NC(=O)N2CCN(c3ccc(C#N)cn3)CC2)C(=O)N(S(=O)(=O)c2ccsc2)c2ccc(C#N)cc21 (stereo not drawn) [Example 10, 4-(5-Cyanopyridin-2-yl)piperazine-1-[5-cyano-3-(2-ethoxyphenyl)-2-oxo-1-(thien-3-ylsulfonyl)-2,3-dihydro-1H-indol-3-yl]carboxamide] | 0.05 to 0.5 µM | < 0.1 µM
10 | CCOc1ccccc1C1(OC(=O)N2CCN(c3ccc(C#N)cn3)CC2)C(=O)N(S(=O)(=O)c2cccc3cccnc23)c2ccc(C#N)cc21 (stereo not drawn) [Example 11, 5-Cyano-3-(2-ethoxyphenyl)-2-oxo-1-(quinoline-8-sulfonyl)-2,3-dihydro-1H-indol-3-yl 4-(5-cyanopyridin-2-yl)piperazine-1-carboxylate] | < 0.05 µM | < 0.1 µM
11 | CCOc1ccccc1C1(OC(=O)N2CCN(c3ccncc3)CC2)C(=O)N(S(=O)(=O)c2cccc3cccnc23)c2ccc(C#N)cc21 (stereo not drawn) [Example 12, 5-Cyano-3-(2-ethoxyphenyl)-2-oxo-1-(quinoline-8-sulfonyl)-2,3-dihydro-1H-indol-3-yl 4-(pyridin-4-yl)piperazine-1-carboxylate] | < 0.05 µM | < 0.1 µM
